As usually defined, the IC50 is the concentration at which inhibition is half-maximal. A higher IC50 goes with weaker potency in that assay.

The record followed here is ChEMBL document CHEMBL2202953, “Structure-based redesign of an edema toxin inhibitor” (Bioorg Med Chem, 2012).

The target of data set [1] is T1, Calmodulin-sensitive adenylate cyclase (Bacillus anthracis, UniProt P40136).
T1 sequence (P40136 whole entry): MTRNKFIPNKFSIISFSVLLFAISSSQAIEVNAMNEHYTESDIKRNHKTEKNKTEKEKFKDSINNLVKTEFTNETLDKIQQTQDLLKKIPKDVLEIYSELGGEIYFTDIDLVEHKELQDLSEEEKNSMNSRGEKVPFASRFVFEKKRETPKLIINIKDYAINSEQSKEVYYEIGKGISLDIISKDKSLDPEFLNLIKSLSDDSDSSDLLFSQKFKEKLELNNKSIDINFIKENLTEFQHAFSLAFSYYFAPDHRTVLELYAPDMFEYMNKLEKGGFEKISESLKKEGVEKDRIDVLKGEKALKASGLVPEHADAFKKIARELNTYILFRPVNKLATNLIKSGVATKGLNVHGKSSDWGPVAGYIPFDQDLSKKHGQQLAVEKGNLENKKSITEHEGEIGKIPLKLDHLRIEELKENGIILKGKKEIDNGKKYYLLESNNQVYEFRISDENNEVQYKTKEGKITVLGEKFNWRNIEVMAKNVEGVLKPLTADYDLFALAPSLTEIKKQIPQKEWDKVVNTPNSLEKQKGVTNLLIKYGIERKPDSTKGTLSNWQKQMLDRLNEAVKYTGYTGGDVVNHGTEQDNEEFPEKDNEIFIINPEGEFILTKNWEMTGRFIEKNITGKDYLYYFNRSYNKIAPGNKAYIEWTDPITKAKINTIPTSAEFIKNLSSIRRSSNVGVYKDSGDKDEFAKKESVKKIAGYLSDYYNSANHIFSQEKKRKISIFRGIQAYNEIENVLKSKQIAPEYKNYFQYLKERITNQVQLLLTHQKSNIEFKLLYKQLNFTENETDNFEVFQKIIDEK
The format is cell-based, RAW264.7.

Data set [2] deals with Salmonella typhimurium. Kind of data set: Mutagenicity in Salmonella typhimurium TAMix at 0.975 ug/mL to 1000 ug/mL after 48 hrs in presence of liver S9 fraction by Ames test. It is filed as toxicity, organism-based. As to conditions: salmonella enterica subsp. enterica serovar typhimurium, s9, 48 h. For orientation: The Ames test detects mutagens through reverse mutation in bacteria.

The subject of data set [3] is Salmonella typhimurium. Put plainly: Mutagenicity in Salmonella typhimurium TAMix at 0.975 ug/mL to 1000 ug/mL after 48 hrs in absence of liver S9 fraction by Ames test. The format is toxicity, organism-based. As to conditions: salmonella enterica subsp. enterica serovar typhimurium.
Data set [4] relates to Salmonella typhimurium. Put plainly: Mutagenicity in Salmonella typhimurium TA98 at 0.975 ug/mL to 1000 ug/mL after 48 hrs in absence of liver S9 fraction by Ames test. The format is toxicity, organism-based. The conditions noted are these: salmonella enterica subsp. enterica serovar typhimurium.
Data set [5] relates to Salmonella typhimurium. Put plainly: Mutagenicity in Salmonella typhimurium TA98 at 0.975 ug/mL to 1000 ug/mL after 48 hrs in presence of liver S9 fraction by Ames test. It is filed as toxicity, organism-based. As to conditions: salmonella enterica subsp. enterica serovar typhimurium, s9, 48 h.
Data set [6] can be described thus: Genotoxicity against human GenM-T01 cells assessed as induction of GFP expression after 48 hrs by GADD45alpha-GFP assay. As to conditions: genm-t01, 48 h. It is filed as toxicity, cell-based.
A short description of data set [7]: Cytotoxic activity against human GenM-T01 cells after 48 hrs. The format is cell-based. As to conditions: genm-t01, 48 h.
Data set [8] in a line: Cytotoxic activity against human GenM-T01 cells after 24 hrs. The format is cell-based. The conditions noted are these: genm-t01, 24 h.
The nature of data set [9]: Genotoxicity against human GenM-T01 cells assessed as induction of GFP expression after 24 hrs by GADD45alpha-GFP assay. The format is toxicity, cell-based. The conditions noted are these: genm-t01, 24 h.
Data set [10] can be described thus: Cytotoxic activity against human GenM-C01 cells after 48 hrs. As to conditions: genm-c01, 48 h. The format is cell-based.

Each structure is given as a SMILES string.

On to `O=C(O)c1cccc(NC(=O)c2ccccc2)c1`, for which the IC50 in [1] is more than 100 µM.

`COC(=O)c1cccc(NC(=O)c2cccc(-c3ccccc3)c2)c1` gave an IC50 in data set [1] of 19 µM. That is a double-digit micromolar value.

In [1], `COC(=O)c1cccc(NC(=O)c2cccc3c2C(=O)c2ccccc2-3)c1` returned a half-inhibitory concentration (IC50) of 11 µM.

For `Nc1ccc(NC(=O)c2cccc3c2C(=O)c2ccccc2-3)c(C(=O)O)c1`, in data set [1], inhibition was half-maximal at 80 µM (IC50). Compared with the last molecule, the IC50 is about 7.3-fold higher.

Consider `Nc1ccc(NC(=O)c2cccc3c2C(=O)c2ccccc2-3)cc1C(=O)O`, for which the IC50 in [1] came to 6.08 µM.

`O=C(O)c1cccc(NC(=O)c2cccc3c2C(=O)c2ccccc2-3)c1Cl`: the IC50 in [1] stood at 9.21 µM.

On to `COC(=O)c1cc(NC(=O)c2cccc3c2C(=O)c2ccccc2-3)ccc1O`, for which the IC50 in data set [1] is more than 100 µM.

`CSc1cccc(NC(=O)c2cccc3c2C(=O)c2ccccc2-3)c1`: 26 µM corresponded to half-maximal inhibition in [1] (IC50).

As to `O=C(Nc1cccc(OC(F)(F)F)c1)c1cccc2c1C(=O)c1ccccc1-2`, the half-maximal inhibitory concentration (IC50) in data set [1] came to 6.8 µM.

`O=C(NO)c1cccc(NC(=O)c2cccc3c2C(=O)c2ccccc2-3)c1` returned a half-maximal inhibitory concentration (IC50) in data set [1] of 12.9 µM.

In the case of `O=C(O)c1cccc(NC(=O)c2cccc3c2C(=O)c2ccccc2-3)c1`, the Activity entry in the data set on Salmonella typhimurium [2], with Salmonella typhimurium [3], with Salmonella typhimurium [4] and with Salmonella typhimurium [5] was “Non-toxic” each time. The MTC in [6], in [7], in [8], in [9] and in [10] was 62.5 µg/mL each time.
